Experimental data published in publication PMC6940897, “Less Cytotoxic Protoflavones as Antiviral Agents: Protoapigenone 1′-O-isopropyl ether Shows Improved Selectivity Against the Epstein–Barr Virus Lytic Cycle” (International Journal of Molecular Sciences, 2019).
“Also recorded” adds a separate entry of the source.

Columns and labels:
[1] = test system: U373-CD4-CCR5 cells; test: MTT cytotoxicity on the HIV host cells; format: cell-based; details: for IC50: U373-CD4-CCR5 cells, MTT, 48 h, n=2, tested up to 100 µM (compound 9 up to 500 µM), read-out: Cytotoxic IC50 ± SEM
Description: (§1) The U373-CD4-CCR5 cell line was obtained from the AIDS Research and Reagent Program, NIAID. Cells were cultured according to the protocol of the provider with 10% heat-inactivated fetal bovine serum (Lonza, Maastricht, The Netherlands) supplemented with 2 mM L-glutamine, 100 units/mL of penicillin, and 100 µg/mL streptomycin (Invitrogen, Merelbeke, Belgium). Pseudotyped viral particules bearing the ADA HIV Env were produced, as described previously.
(§2) Antiviral activity was assessed while using a Pseudotype Virus Assay, allowing for one cycle of viral replication. The U373-CD4-CCR5 cells were infected by pseudotyped virus pNL4.3ΔenvLuc-ADA 8 using spinoculation at 1200 g during 2 h in the presence of compounds and cultured for two consecutive days in the presence of the compounds. After 48 h, luciferase activity expressed as Relative Light Units was measured (Luciferase System kit, Promega, The Netherlands). Drug cytotoxicity was evaluated while using MTT (3-(4,5-dimethylthiazol-2-yl)-2,5-diphenyltetrazolium bromide, Sigma, Belgium) 48 h after incubation with the compounds by measuring A540 and A690 using a POLARstar Omega Plate Reader (BMG Lab Technologies, Belgium) after 48 h of incubation with the compounds. The value of OD540–OD690 was calculated.

[2] = MTT cytotoxicity on the HIV host cells; format: cell-based; details: human, U373-CD4-CCR5 cells, MTT, 48 h, n=2; tested up to 100 µM (compound 9 up to 500 µM); read-out: Cytotoxic IC50 ± SEM
Description: as §1, §2

[3] = test system: EBV lytic cycle (expression of EBV Rta); test: Inhibition of EBV lytic cycle: immunoblot of Rta expression in P3HR1 cells after lytic induction; format: cell-based, Epstein–Barr Virus; details: for inhibition of EBV lytic cycle, first screening (in words): 0.25 µM, sodium butyrate + TPA, 24 h; for concentration causing a marked reduction in the Rta levels: 24 h after lytic induction; for concentration causing a marked reduction in the Rta levels / IC50: immunoblot; for IC50: human gammaherpesvirus 4, P3HR-1, 24 h after lytic induction with SB and TPA; for selectivity ratio at 24 h: human, cytotoxic IC50 (P3HR1) / anti-EBV Rta IC50, read-out: Selectivity of the anti-EBV vs. cytotoxic effect (ratio of the corresponding IC50 values)
Description: Compounds 2 and 6–28 were tested for their activity on the EBV lytic cycle. To assess this, the P3HR1 cells were treated with sodium butyrate and TPA for 24 h. As expected, lytic protein Rta was expressed after lytic induction. As a first screening, the cells were treated with protoapigenone (2), used as a positive control, or compounds 6–28 at the induction of lytic cycle for 24 h.
(§3) EBV-positive BL cell line P3HR1 cells were cultured in RPMI 1640 medium. Culture media were supplemented with 10% fetal calf serum. P3HR1 cells were treated with 3 mM sodium butyrate and 30 nM 12-O-tetradecanoylphobol-13-actetae (TPA) to induce the EBV lytic cycle.
P3HR1 cells were lysed in mRIPA buffer (50 mM Tris-HCl, pH 7.8, 150 mM NaCl, 5 mM EDTA, 0.5% Triton X-100, 0.5% NP-40). Approximately 5% of the lysate was loaded to a gel and then separated by electrophoresis in 10% SDS-PAGE. The proteins in the gel were electroblotted onto a polyvinylidene difluoride (PVDF) blotting membrane while using a Hoefer transfer system. Rta was detected while using mouse anti-Rta monoclonal antibody (Argene, Verniolle, France). α-Tubulin was detected using mouse anti-α-tubulin monoclonal antibody (Abcam, Cambridge, UK). Primary antibodies were detected using horseradish peroxidase-conjugated secondary antibodies (Cell Signaling Technology, Danvers, MA, USA) and then visualized using SuperSignal West Pico Chemiluminescent substrate (Thermo Fisher Scientific, Waltham, MA, USA).

[4] = MTT cytotoxicity assay on P3HR1 cells; format: cell-based; details: human, 24 h
Description: as §3
(§4) P3HR1 cells (5 × 10^4) were seeded in wells of a 96-well plate and then cultured for 24 h in 100 µL of RPMI 1640 medium containing protoapigenone or its analogs. Subsequently, 1% Triton X-100 was added as a […] control. Cytotoxicity was determined by Cell Proliferation Kit I (Roche, Basel, Switzerland). An aliquot of 10 µL of the MTT labeling reagent was added to each well and the plate was incubated for 4 h at 37°C. Afterwards, 100 µL solubilization solution was added to each well to dissolve insoluble formazan and was incubated overnight. Optical density was measured at 595 nm and 650 nm.

[5] = test system: P3HR1 cells; test: MTT cytotoxicity assay on P3HR1 cells; format: cell-based
Description: as §3, §4

[6] = test system: EBV lytic cycle (expression of EBV Rta); set-up: method as in PMID 21490247; details: 0.25 µM; cited from earlier work
[7] = test system: HIV-1; test: HIV-1 pseudotype virus assay (one cycle of viral replication, luciferase readout); format: cell-based
Description: Compounds 2, 6–14, and 21–28 were tested against HIV-1 while using a pseudotype virus assay allowing only one cycle of viral replication and being more sensitive for compounds targeting the early steps of HIV replication, such as reverse transcription and integration. […] While this represents a rather weak activity, it might still be of interest, since this compound was not cytotoxic on the host cells at as high as 500 µM concentration.
as §1, with “Pseudotyped viral particules bearing the ADA HIV Env were produced, as described previously.” left out
as §2, with “The U373-CD4-CCR5 cells were infected by pseudotyped virus pNL4.3ΔenvLuc-ADA 8 using spinoculation at 1200 g during 2 h in the presence of compounds and cultured for two consecutive days in the presence of the compounds.” left out

C#CCOC1(c2cc(=O)c3c(O)cc(O)cc3o2)C=CC(=NO)CC1OC (stereo not shown) [Compound 26]
IC50 [1]: > 100 µM

COC1(c2cc(=O)c3c(O)cc(O)cc3o2)CCC(=O)CC1 [Compound 10]
IC50 at 48 h [2]: > 100 µM

C#CCOC1(c2cc(=O)c3c(O)cc(O)cc3o2)C=CC(=NO)CC1OC (stereo not shown) [Compound 23]
IC50 at 48 h [2]: ~89.5 µM

COC1CC(=NO)C=CC1(OC(C)C)c1cc(=O)c2c(O)cc(O)cc2o1 (stereo not shown) [Compound 21]
IC50 at 48 h [2]: > 100 µM

CCCCOC1(c2cc(=O)c3c(O)cc(O)cc3o2)CCC(=O)CC1 [Compound 14]
IC50 at 48 h [2]: ~6.37 µM

CCCCOC1(c2cc(=O)c3c(O)cc(O)cc3o2)C=CC(=NO)CC1OC (stereo not shown) [Compound 25]
IC50 [1]: 53.88 ± 0.35 µM

C#CCOC1(c2cc(=O)c3c(O)cc(O)cc3o2)C=CC(=O)C=C1 [Compound 8, protoapigenone 1′-O-propargyl ether]
IC50 at 48 h [2]: 0.67 ± 0.03 µM | inhibition of EBV lytic cycle, first screening (in words) [3]: can inhibit EBV lytic cycle | concentration causing a marked reduction in the Rta levels [3]: 0.50 µM | IC50 [3]: 0.285 µM | selectivity ratio at 24 h [3]: 17.3 | IC50 at 24 h [4]: 4.93 µM | cytotoxic activity compared to protoapigenone (in words) [5]: similarly active as protoapigenone

CC(C)OC1(c2cc(=O)c3c(O)cc(O)cc3o2)C=CC(=O)C=C1 [Compound 6, protoapigenone 1′-O-isopropyl ether]
IC50 at 48 h [2]: 2.09 ± 0.13 µM | inhibition of EBV lytic cycle, first screening (in words) [3]: can inhibit EBV lytic cycle | concentration causing a marked reduction in the Rta levels [3]: 0.50 µM | IC50 [3]: 0.467 µM | selectivity ratio at 24 h [3]: 73 | IC50 at 24 h [4]: 34.1 µM | cytotoxic activity compared to protoapigenone (in words) [5]: much weaker; also recorded: an order of magnitude lower cytotoxic effect

CCOC1(c2cc(=O)c3c(O)cc(O)cc3o2)CCC(=O)CC1 [Compound 11]
IC50 at 48 h [2]: > 100 µM

COC1CC(=NO)C=CC1(OC(C)C)c1cc(=O)c2c(O)cc(O)cc2o1 (stereo not shown) [Compound 24]
IC50 [1]: > 100 µM

CCCCOC1(c2cc(=O)c3c(O)cc(O)cc3o2)C=CC(=NO)CC1OC (stereo not shown) [Compound 22]
IC50 at 48 h [2]: > 100 µM

O=c1cc(C2(O)CCC(=NO)CC2)oc2cc(O)cc(O)c12 (stereo not shown) [Compound 27]
IC50 at 48 h [2]: > 100 µM

CCCCOC1(c2cc(=O)c3c(O)cc(O)cc3o2)CCC(=NO)CC1 (stereo not shown) [Compound 28]
IC50 at 48 h [2]: 27 ± 8.4 µM

CCCCOC1(c2cc(=O)c3c(O)cc(O)cc3o2)C=CC(=O)C=C1 [Compound 7]
IC50 at 48 h [2]: 0.25 ± 0.002 µM | inhibition of EBV lytic cycle, first screening (in words) [3]: can inhibit EBV lytic cycle | concentration causing a marked reduction in the Rta levels [3]: 0.25 µM | IC50 [3]: 0.208 µM | selectivity ratio at 24 h [3]: 9.8 | IC50 at 24 h [4]: 2.04 µM | cytotoxic activity compared to protoapigenone (in words) [5]: similarly active as protoapigenone

O=C1C=CC(O)(c2cc(=O)c3c(O)cc(O)cc3o2)C=C1 [Compound 2, protoapigenone]
IC50 at 48 h [2]: 0.22 ± 0.003 µM | activity against EBV lytic cycle (in words) [6]: strong activity | IC50 [3]: 0.127 µM | selectivity ratio at 24 h [3]: 30.1 | IC50 at 24 h [4]: 3.86 µM

CC(C)OC1(c2cc(=O)c3c(O)cc(O)cc3o2)CCC(=O)CC1 [Compound 13]
IC50 at 48 h [2]: > 100 µM

CCCOC1(c2cc(=O)c3c(O)cc(O)cc3o2)CCC(=O)CC1 [Compound 12]
IC50 at 48 h [2]: > 100 µM

O=C1CCC(O)(c2cc(=O)c3c(O)cc(O)cc3o2)CC1 [Compound 9, Tetrahydroprotoapigenone]
cytotoxicity on the host cells (in words) ([1]; at as high as 500 µM): not cytotoxic | IC50 at 48 h [2]: > 500 µM | inhibition at 100 µM ([7]; Human immunodeficiency virus 1, 48 h, read-out: inhibition of viral infection): ~50% | antiretroviral activity against HIV-1 (in words) ([7]; pseudotype virus assay, 100 µM where stated): inhibits HIV-1 infection; also recorded: weak antiretroviral activity
